Results on one compound are retold here after patent US4610686A, “Controlled delivery of haloperidol by an osmotic delivery system” (ALZA Corporation, priority 1983, dated 1986).

Converted amounts (≈) assume the structure as drawn. A value given as a limit tells only on which side of the number the result lay.

In general, solubility refers to how much of the substance goes into solution per volume.

The conditions of series [1]: haloperidol alone.
For series [2] the following is noted: haloperidol, background statement; cited from earlier work.

As to `O=C(CCCN1CCC(O)(c2ccc(Cl)cc2)CC1)c1ccc(F)cc1` [haloperidol, 4-[4-(-chlorophenyl)-4-hydroxy-1-piperidnyl]-1-(4-fluorophenyl)-1-butanone], the “osmotic pressure (in words)” value in series [1] is recorded as “near zero osmotic pressure”. In series [2], the “solubility in water (in words, background)” value is “practically insoluble in water”. For the same compound, the solubility in “physchem” (aqueous citric acid) is 165 mg/mL (≈ 439 mM); in “physchem” (aqueous maleic acid) it was over 200 mg/mL; in the series “physchem” (aqueous malic acid) it was over 250 mg/mL; in the series “physchem” (water) it was under 0.1 mg/mL.
